# Laboratory results published in patent US20230372407A1, “METHODS FOR MODULATING TLR4 SIGNALING” (President and Fellows of Harvard College, priority 2020, published 2023).
# Like-named read-outs stand apart in the source and are kept apart here.
# What was measured:
# ISG expression [1] = assay: ISG expression in mesenteric lymph nodes (qRT-PCR); type: in vivo, mouse
# ISG expression [2] = assay: ISG expression in spleen (qRT-PCR); type: in vivo, mouse
# TLR4 = type: cell-based, mouse
# ISG expression [3] = assay: ISG / BST2 expression in BMDCs (qRT-PCR, flow cytometry); type: cell-based, mouse
# Ifnb1 expression = Ifnb1 expression by lamina propria DCs (qRT-PCR); type: in vivo, mouse; settings: WT SPF mice, 150 ug oral gavage, 1.5 hrs
# Experimental: To confirm the relevance of these findings in vivo, Ifnb1 expression by colon LP DCs was analyzed in WT SPF mice administered 150 ug of PSA by oral gavage.
# RNA was isolated from whole tissues or the DC^+ and DC^− fractions of spleens, mLNs, and colons following manufacturer's instructions with the RNeasy mini kit (Qiagen). cDNA was prepared with the Quantitect Reverse Transcription Kit (Qiagen). qRT-PCR was performed on a QuantStudio7 Flex or Pro Real-Time PCR system (Applied Biosystems) with RT^2 SYBR Green ROX qPCR Mastermix (Qiagen). Amplification was achieved using an initial cycle of 95° C. for 10 min, followed by 40 cycles of 95° C. for 15 s and 60° C. for 1 min. Gene expression was normalized using Actb as a reference gene. The forward (f) and reverse (r) primers used to detect expression of the corresponding murine genes were as follows (SEQ ID NOs: 1-20, respectively):
# Single-cell suspensions of the indicated tissues were prepared as described. DC positive and negative fractions were isolated with mouse pan-DC microbeads (Miltenyi), following the manufacturer's protocol.
# GFWT C57BL/6 mice were administered B. fragilis strain NCTC 9343 or C. ramosum strain AO31 by oral gavage [200 uL, approximately 10^8-10^9 colony-forming units (CFU) per mouse]. […]
# VSV strain Indiana = settings: mouse, in vivo, po
# VSV-GFP = type: cell-based, mouse
# IAV/PR8-GFP = type: cell-based, mouse
# CD4+FOXP3+ Tregs = assay: Human colon biopsy cLP lymphocytes, IL-10 production by CD4+FOXP3+ Tregs; type: cell-based; settings: total cLP lymphocytes from human colon biopsies, 6-10 days
# Experimental: FIG. 13. PSA induces Tregs in cells obtained from human gut tissue biopsies. Total cLP lymphocytes from 8-10 human colon biopsies were treated with PBS, WT-OMV, DPSA-OMV, or purified PSA for 6-10 days. IL-10 production by CD4+FOXP3+ Tregs was assessed by flow cytometry and intracellular cytokine staining. ** p<0.01, One-way ANOVA. Error bars represent mean +S.E.M.
# Human specimens = Human specimens response to PSA; type: cell-based
# CD4+ T cells = type: cell-based; settings: data not shown
# [4] = Mouse autoimmune disease model; type: in vivo; settings: dependent on IFN-I signaling; data not shown
# [5] = WT SPF mice + metronidazole 7 days (Table 3)
# [6] = WT SPF mice + metronidazole 7 days (Table 4)
molecule,measurement,setting,value
Cc1ncc([N+](=O)[O-])n1CCO [metronidazole],"Ifit1 mLN fold difference gene expression to WT SPF, Mean",ISG expression [1]; [5],0.57 fold
same,"Ifit2 mLN fold difference gene expression to WT SPF, Mean",ISG expression [1]; [5],0.69 fold
same,"Ifit3 mLN fold difference gene expression to WT SPF, Mean",ISG expression [1]; [5],0.76 fold
same,"Irf7 mLN fold difference gene expression to WT SPF, Mean",ISG expression [1]; [5],0.68 fold
same,"Mx1 mLN fold difference gene expression to WT SPF, Mean",ISG expression [1]; [5],0.78 fold
same,"Oas/2 mLN fold difference gene expression to WT SPF, Mean",ISG expression [1]; [5],0.74 fold
same,"Rsad2 mLN fold difference gene expression to WT SPF, Mean",ISG expression [1]; [5],0.46 fold
same,ISG expression in mLN (panel),ISG expression [1]; WT mice vs WT SPF,significant decreases in ISG expression
same,"Ifit1 Spleen fold difference gene expression to WT SPF, Mean",ISG expression [2]; [6],0.57 fold
same,"Ifit2 Spleen fold difference gene expression to WT SPF, Mean",ISG expression [2]; [6],0.69 fold
same,"Ifit3 Spleen fold difference gene expression to WT SPF, Mean",ISG expression [2]; [6],0.76 fold
same,"Irf7 Spleen fold difference gene expression to WT SPF, Mean",ISG expression [2]; [6],0.68 fold
same,"Mx1 Spleen fold difference gene expression to WT SPF, Mean",ISG expression [2]; [6],0.78 fold
same,"Oas/2 Spleen fold difference gene expression to WT SPF, Mean",ISG expression [2]; [6],0.74 fold
same,"Rsad2 Spleen fold difference gene expression to WT SPF, Mean",ISG expression [2]; [6],0.46 fold
same,ISG expression in spleen (panel),ISG expression [2]; WT mice vs WT SPF,significant decreases in ISG expression
polysaccharide A [PSA],IFNβ secretion by BMDCs,"TLR4; Myd88−/− BMDCs, 50 ug/mL, 6 hrs",significant decrease
same,IFNβ secretion by BMDCs,"TLR4; Tlr2−/− BMDCs vs WT, 50 ug/mL, 6 hrs",no effect
same,IFNβ secretion by BMDCs,TLR4; Tlr4−/− BMDCs vs WT,completely lost the ability to secrete IFNβ
same,IFNβ secretion by BMDCs,"TLR4; Trif−/− BMDCs, 50 ug/mL, 6 hrs",lack of increased IFNβ secretion
same,IFNβ secretion by BMDCs,TLR4; WT BMDCs,significantly induced
same,IFNβ secretion by BMDCs,"TLR4; dectin-1 deficient (Clec7a−/−) BMDCs vs WT, 50 ug/mL, 6 hrs",no effect
same,Surface BST2 levels,ISG expression [3]; Ifnar1−/− and Ifnb1−/− BMDCs vs WT,significantly reduced
same,expression of a panel of ISGs,"ISG expression [3]; WT BMDCs, 24 hrs, 50 ug/mL, vs vehicle",increase in expression
same,BST2 mean fluorescence intensity (MFI),"ISG expression [3]; WT BMDCs, 24 hrs, 100 ug/mL, vs vehicle",increased
same,Ifnb1 expression by colon LP DCs,Ifnb1 expression,significant increase
same,daily and cumulative paralysis scores,VSV strain Indiana,decreased
same,incidence of disease,VSV strain Indiana,decreased
same,survival,VSV strain Indiana,enhanced survival
same,Protection from VSV-GFP infection,VSV-GFP,completely lost
same,cell viability,VSV-GFP,increased cell viability
same,percentage of infected (GFP+) cells,VSV-GFP,inhibited virus infection in a dose-dependent manner
same,antiviral effect against IAV/PR8-GFP,IAV/PR8-GFP,completely abrogated
same,cell viability,IAV/PR8-GFP,increase in cell viability
same,percentage of infected cells,IAV/PR8-GFP,significant reduction
same,IL-10 production by CD4+FOXP3+ Tregs,CD4+FOXP3+ Tregs,induces Tregs
same,response of human specimens,Human specimens,dose-dependent manner
same,IL-10 secretion by CD4+ T cells,CD4+ T cells,enhance IL-10 secretion
same,protective effects in a mouse autoimmune disease model,[4],protective effects
lipooligosaccharide [LOS],IFNβ secretion by BMDCs,TLR4; Tlr4−/− BMDCs vs WT,through TLR4
same,IFNβ secretion by BMDCs,TLR4; WT BMDCs,dose-dependent manner
